Format in all cases: cell-based
The target in one experiment is human TLR9 (Homo sapiens (Human), UniProt Q9NR96). In words: TLR9 inhibition reporter assay (HEK-Blue, SEAP). The following applies: HEK-Blue cells overexpressing human TLR9, ODN2006 5 nM stimulation. A digest of the protocol: (§1)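 HEK-Blue cells overexpressing the receptor carry a SEAP reporter under IFN-β minimal promoter with NF-κB/AP-1 sites. Compounds (0.05 nM–50 μM final) were preincubated 30 min at room temperature, then cells were stimulated with gardiquimod 7.5 μM (TLR7), R848 15.9 μM (TLR8) or ODN2006 5 nM (TLR9) for 22 h at 37 °C.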
human TLR9, sequence (Q9NR96 26-1032): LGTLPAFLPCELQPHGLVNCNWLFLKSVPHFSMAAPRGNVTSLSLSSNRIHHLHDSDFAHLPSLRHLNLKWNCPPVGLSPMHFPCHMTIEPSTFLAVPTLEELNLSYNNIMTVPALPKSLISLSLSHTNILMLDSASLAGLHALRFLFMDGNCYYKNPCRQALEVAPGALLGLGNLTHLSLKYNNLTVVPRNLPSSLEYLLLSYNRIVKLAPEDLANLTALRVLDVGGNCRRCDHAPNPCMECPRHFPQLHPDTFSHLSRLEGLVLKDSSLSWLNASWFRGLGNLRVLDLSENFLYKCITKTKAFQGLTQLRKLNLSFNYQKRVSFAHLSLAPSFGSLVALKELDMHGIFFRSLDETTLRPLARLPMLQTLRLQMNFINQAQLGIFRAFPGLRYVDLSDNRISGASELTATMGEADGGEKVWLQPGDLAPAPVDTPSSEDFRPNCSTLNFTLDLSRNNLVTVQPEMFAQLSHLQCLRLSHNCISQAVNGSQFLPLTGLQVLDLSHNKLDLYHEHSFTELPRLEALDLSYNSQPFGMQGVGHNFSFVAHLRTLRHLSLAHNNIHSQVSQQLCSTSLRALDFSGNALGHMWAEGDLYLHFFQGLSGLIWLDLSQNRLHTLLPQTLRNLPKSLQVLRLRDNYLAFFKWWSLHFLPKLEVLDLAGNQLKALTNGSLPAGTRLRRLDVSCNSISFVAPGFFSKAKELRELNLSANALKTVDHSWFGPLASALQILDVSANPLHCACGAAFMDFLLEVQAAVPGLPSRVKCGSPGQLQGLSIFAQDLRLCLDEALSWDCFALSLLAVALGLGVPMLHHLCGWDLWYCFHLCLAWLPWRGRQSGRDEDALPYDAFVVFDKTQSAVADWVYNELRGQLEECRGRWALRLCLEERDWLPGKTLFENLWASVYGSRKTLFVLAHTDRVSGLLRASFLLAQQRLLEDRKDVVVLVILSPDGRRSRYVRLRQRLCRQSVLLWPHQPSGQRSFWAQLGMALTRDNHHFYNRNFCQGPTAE
(In general: A reporter such as luciferase makes a cellular process visible.)

The next experiment deals with human TLR7 (Homo sapiens (Human), UniProt Q9NYK1). In words: TLR7 inhibition reporter assay (HEK-Blue, SEAP). The following applies: HEK-Blue cells overexpressing human TLR7, gardiquimod 7.5 μM stimulation. A digest of the protocol: as §1
human TLR7, sequence (Q9NYK1 27-1049): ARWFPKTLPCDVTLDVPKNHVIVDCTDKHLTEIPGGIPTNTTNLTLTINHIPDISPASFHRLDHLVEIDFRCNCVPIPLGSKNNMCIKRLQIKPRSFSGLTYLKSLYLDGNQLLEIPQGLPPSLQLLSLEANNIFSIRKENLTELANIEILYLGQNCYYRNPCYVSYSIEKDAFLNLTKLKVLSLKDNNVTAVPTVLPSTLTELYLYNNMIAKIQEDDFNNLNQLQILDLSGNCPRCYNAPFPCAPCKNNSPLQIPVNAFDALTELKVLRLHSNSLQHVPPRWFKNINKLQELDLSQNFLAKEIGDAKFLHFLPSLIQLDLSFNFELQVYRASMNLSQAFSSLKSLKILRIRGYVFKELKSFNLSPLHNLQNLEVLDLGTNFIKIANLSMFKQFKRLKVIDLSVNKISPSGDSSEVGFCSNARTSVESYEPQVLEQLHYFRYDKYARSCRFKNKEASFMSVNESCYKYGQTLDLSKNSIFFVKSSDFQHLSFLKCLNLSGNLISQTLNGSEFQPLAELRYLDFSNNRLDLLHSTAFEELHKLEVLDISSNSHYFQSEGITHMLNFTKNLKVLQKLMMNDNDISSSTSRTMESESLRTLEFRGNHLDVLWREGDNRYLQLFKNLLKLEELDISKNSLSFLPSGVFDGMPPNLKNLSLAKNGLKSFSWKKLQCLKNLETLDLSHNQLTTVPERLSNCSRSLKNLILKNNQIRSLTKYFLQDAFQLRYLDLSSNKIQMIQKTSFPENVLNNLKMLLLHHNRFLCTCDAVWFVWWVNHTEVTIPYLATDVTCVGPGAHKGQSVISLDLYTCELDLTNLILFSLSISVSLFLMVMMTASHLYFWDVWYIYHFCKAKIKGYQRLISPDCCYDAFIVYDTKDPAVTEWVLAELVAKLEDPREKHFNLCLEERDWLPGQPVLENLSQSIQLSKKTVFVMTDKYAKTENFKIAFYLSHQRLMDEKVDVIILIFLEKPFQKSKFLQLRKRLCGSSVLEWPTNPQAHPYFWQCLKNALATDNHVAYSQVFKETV
The next experiment concerns the target human TLR8 (Homo sapiens (Human), UniProt Q9NR97). Briefly: TLR8 inhibition reporter assay (HEK-Blue, SEAP). The following applies: HEK-Blue cells overexpressing human TLR8, R848 15.9 μM stimulation. A digest of the protocol: as §1

human TLR8, sequence (Q9NR97 27-1041): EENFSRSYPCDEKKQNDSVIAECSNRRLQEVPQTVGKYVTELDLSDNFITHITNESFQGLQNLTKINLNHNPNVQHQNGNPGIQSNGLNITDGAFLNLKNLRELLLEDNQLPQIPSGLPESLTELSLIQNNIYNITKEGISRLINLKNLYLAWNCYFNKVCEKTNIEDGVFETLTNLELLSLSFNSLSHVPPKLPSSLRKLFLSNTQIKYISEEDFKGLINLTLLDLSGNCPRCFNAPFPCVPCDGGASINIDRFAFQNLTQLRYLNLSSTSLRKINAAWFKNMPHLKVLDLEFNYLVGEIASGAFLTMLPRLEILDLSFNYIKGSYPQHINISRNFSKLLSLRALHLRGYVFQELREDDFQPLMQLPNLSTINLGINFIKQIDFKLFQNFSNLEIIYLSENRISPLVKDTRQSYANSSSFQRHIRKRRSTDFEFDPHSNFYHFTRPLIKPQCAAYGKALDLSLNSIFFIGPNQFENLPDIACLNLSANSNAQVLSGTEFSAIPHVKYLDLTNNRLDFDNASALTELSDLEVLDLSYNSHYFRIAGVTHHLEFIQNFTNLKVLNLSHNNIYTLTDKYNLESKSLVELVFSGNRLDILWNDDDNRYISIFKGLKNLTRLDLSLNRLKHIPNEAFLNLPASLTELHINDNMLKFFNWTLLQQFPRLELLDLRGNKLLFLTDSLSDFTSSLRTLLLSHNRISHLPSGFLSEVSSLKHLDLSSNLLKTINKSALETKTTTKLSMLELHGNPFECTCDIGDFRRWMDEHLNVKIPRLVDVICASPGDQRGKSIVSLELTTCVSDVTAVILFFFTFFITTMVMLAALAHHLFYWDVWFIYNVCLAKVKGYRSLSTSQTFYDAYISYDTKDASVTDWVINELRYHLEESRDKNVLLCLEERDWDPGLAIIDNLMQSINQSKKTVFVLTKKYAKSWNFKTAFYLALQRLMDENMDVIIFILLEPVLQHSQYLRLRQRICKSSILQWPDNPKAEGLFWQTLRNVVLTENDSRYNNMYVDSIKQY

On to `Cc1cc(-c2[nH]c3ccc(-c4sc(C5CCNCC5)nc4C)cc3c2C(C)C)ccn1` [Example 201, 5-(3-isopropyl-2-(2-methylpyridin-4-yl)-1H-indol-5-yl)-4-methyl-2-(piperidin-4-yl)thiazole], for which the results for the IC50 against human TLR9, against human TLR7 and at human TLR8 were 1840 nM, 10 nM and 2.9 nM, respectively.
The corresponding values for `CNCCNc1ccc(-c2ccc3[nH]c(-c4ccnc(C)c4)c(C(C)C)c3c2)cn1` [Example 202, N1-(5-(3-isopropyl-2-(2-methylpyridin-4-yl)-1H-indol-5-yl)pyridin-2-yl)-N2-methylethane-1,2-diamine] are 495 nM, 11 nM and 1.3 nM.
Take `CC(C)c1c(-c2ccnc3[nH]ncc23)[nH]c2ccc(-c3nnc(C(=O)NC4CCN(C(C)C)CC4)s3)cc12` [Example 203, 5-(3-isopropyl-2-(1H-pyrazolo[3,4-b]pyridin-4-yl)-1H-indol-5-yl)-N-(1-isopropylpiperidin-4-yl)-1,3,4-thiadiazole-2-carboxamide]: the IC50 – broadly, the concentration that gives 50% inhibition – against human TLR9 was found to be 926 nM; at human TLR7, 56 nM; on human TLR8, 7.8 nM.
Turning to `Cc1cc(-c2[nH]c3ccc(-c4nnc(C5CCCN(C(C)C)C5)[nH]4)cc3c2C(C)C)ccn1` (stereo not drawn) [Example 204, 3-isopropyl-5-(5-(1-isopropylpiperidin-3-yl)-4H-1,2,4-triazol-3-yl)-2-(2-methylpyridin-4-yl)-1H-indole], the IC50 against human TLR9 came out at 218 nM; against human TLR7, 67 nM; against human TLR8, 5.7 nM.
On the same counts, the results for `Cc1cc(-c2[nH]c3ccc(-c4nnc(C5CCCN(C(C)C)C5)[nH]4)cc3c2C(C)C)ccn1` (stereo not drawn) [Example 205, 3-isopropyl-5-(5-(1-isopropylpiperidin-3-yl)-4H-1,2,4-triazol-3-yl)-2-(2-methylpyridin-4-yl)-1H-indole] are 243 nM, 32 nM and 5.5 nM.
On the same counts, the results for `CC(C)c1c(-c2ccnc3[nH]ncc23)[nH]c2ccc(-c3nc4n(n3)CCNC4)cc12` [Example 206, 2-(3-isopropyl-2-(1H-pyrazolo[3,4-b]pyridin-4-yl)-1H-indol-5-yl)-5,6,7,8-tetrahydro-[1,2,4]triazolo[1,5-a]pyrazine] are greater than 50000 nM, 4450 nM and 11 nM.
Regarding `Cc1cc(-c2[nH]c3ccc(-c4ccc(NC(=O)[C@H]5CCNC5)nc4)cc3c2C(C)C)ccn1` [Example 207, (S)—N-(5-(3-isopropyl-2-(2-methylpyridin-4-yl)-1H-indol-5-yl)pyridin-2-yl)pyrrolidine-3-carboxamide], the IC50 came out at 1650 nM against human TLR9, 83 nM on human TLR7 and 14 nM on human TLR8.
Consider `CC(C)c1c(-c2ccnc3[nH]ncc23)[nH]c2ccc(-c3cc(N4CCC(N)CC4)ncn3)cc12` [Example 208, 1-(6-(3-isopropyl-2-(1H-pyrazolo[3,4-b]pyridin-4-yl)-1H-indol-5-yl)pyrimidin-4-yl)piperidin-4-amine], for which the figures for the IC50 against human TLR9, against human TLR7 and against human TLR8 were 1220 nM, 139 nM and 9.3 nM, respectively.
As to `Cc1cc(-c2[nH]c3ccc(-c4ccc(NC(=O)[C@@H]5CCNC5)nc4)cc3c2C(C)C)ccn1` [Example 209, (R)—N-(5-(3-isopropyl-2-(2-methylpyridin-4-yl)-1H-indol-5-yl)pyridin-2-yl)pyrrolidine-3-carboxamide], the concentration for half-maximal inhibition (IC50) came out at 828 nM on human TLR9, 169 nM against human TLR7 and 67 nM on human TLR8.
On the same counts, the results for `CC(C)c1c(-c2ccnc3[nH]ncc23)[nH]c2ccc(-c3nc4n(n3)CCN(C3CCN(C(C)C)CC3)C4)cc12` [Example 211, 2-(3-isopropyl-2-(1H-pyrazolo[3,4-b]pyridin-4-yl)-1H-indol-5-yl)-7-(1-isopropylpiperidin-4-yl)-5,6,7,8-tetrahydro-[1,2,4]triazolo[1,5-a]pyrazine] are 1830 nM, 216 nM and 9.9 nM.
Consider `Cc1oc(-c2ccc3[nH]c(-c4ccnc5[nH]ncc45)c(C(C)C)c3c2)nc1C(=O)NCC1CCNC1` (stereo not drawn) [Example 212, 2-(3-isopropyl-2-(1H-pyrazolo[3,4-b]pyridin-4-yl)-1H-indol-5-yl)-5-methyl-N-(pyrrolidin-3-ylmethyl)oxazole-4-carboxamide], for which the IC50 on human TLR9 was 12100 nM; against human TLR7, 1060 nM; against human TLR8 it was 109 nM.
As to `Cc1cc(-c2[nH]c3ccc(-c4nnc(C5CN6CCC5CC6)o4)cc3c2C(C)C)ccn1` (stereo not drawn) [Example 213, 2-(3-isopropyl-2-(2-methylpyridin-4-yl)-1H-indol-5-yl)-5-(quinuclidin-3-yl)-1,3,4-oxadiazole], the results for the 50% inhibitory concentration (IC50) against human TLR9, on human TLR7 and at human TLR8 were 655 nM, 47 nM and 3.3 nM, respectively.
As for `CC(C)CN1CCC(NC(=O)c2nnc(-c3ccc4[nH]c(-c5ccnc6[nH]ncc56)c(C(C)C)c4c3)o2)CC1` [Example 214, N-(1-isobutylpiperidin-4-yl)-5-(3-isopropyl-2-(1H-pyrazolo[3,4-b]pyridin-4-yl)-1H-indol-5-yl)-1,3,4-oxadiazole-2-carboxamide], the values for the half-maximal inhibitory concentration (IC50) on human TLR9, against human TLR7 and at human TLR8 were 686 nM, 203 nM and 4.4 nM, respectively.
In the case of `CNC(=O)c1c(-c2ccc3[nH]c(-c4ccnc(C)c4)c(C(C)C)c3c2)nn2c1CNCC2` [Example 215, 2-(3-isopropyl-2-(2-methylpyridin-4-yl)-1H-indol-5-yl)-N-methyl-4,5,6,7-tetrahydropyrazolo[1,5-a]pyrazine-3-carboxamide], the 50% inhibitory concentration (IC50) against human TLR9 is 20800 nM; at human TLR7 it was 9.8 nM; against human TLR8, 14 nM.
On the same counts, the results for `Cc1cc(-c2[nH]c3ccc(-c4nn5c(c4C(N)=O)CNCC5)cc3c2C(C)C)ccn1` [Example 216, 2-(3-isopropyl-2-(2-methylpyridin-4-yl)-1H-indol-5-yl)-4,5,6,7-tetrahydropyrazolo[1,5-a]pyrazine-3-carboxamide] are 35000 nM, 25 nM and 6.9 nM.
In the case of `CNCCN1CCn2nc(-c3ccc4[nH]c(-c5ccnc6[nH]ncc56)c(C(C)C)c4c3)nc2C1` [Example 217, 2-(2-(3-isopropyl-2-(1H-pyrazolo[3,4-b]pyridin-4-yl)-1H-indol-5-yl)-5,6-dihydro-[1,2,4]triazolo[1,5-a]pyrazin-7(8H)-yl)-N-methylethan-1-amine], the figures for the IC50 on human TLR9, at human TLR7 and at human TLR8 were greater than 50000 nM, 417 nM and 41 nM, respectively.
On to `CNCCN1CCn2nc(-c3ccc4[nH]c(-c5ccnc(C)c5)c(C(C)C)c4c3)c(C(N)=O)c2C1` [Example 218, 2-(3-isopropyl-2-(2-methylpyridin-4-yl)-1H-indol-5-yl)-5-(2-(methylamino)ethyl)-4,5,6,7-tetrahydropyrazolo[1,5-a]pyrazine-3-carboxamide], for which the IC50 against human TLR9 was found to be 1940 nM; at human TLR7 it was 496 nM; against human TLR8, 93 nM.
The corresponding values for `CNCCN1CCn2nc(-c3ccc4[nH]c(-c5ccnc(C)c5)c(C(C)C)c4c3)c(C(=O)NC)c2C1` [Example 219, 2-(3-isopropyl-2-(2-methylpyridin-4-yl)-1H-indol-5-yl)-N-methyl-5-(2-(methylamino)ethyl)-4,5,6,7-tetrahydropyrazolo[1,5-a]pyrazine-3-carboxamide] are 2600 nM, 163 nM and 147 nM.
Turning to `CC(C)c1c(-c2ccnc3[nH]ncc23)[nH]c2ccc(-c3nnc(C4CN5CCC4CC5)o3)cc12` (stereo not drawn) [Example 220, 2-(3-isopropyl-2-(1H-pyrazolo[3,4-b]pyridin-4-yl)-1H-indol-5-yl)-5-(quinuclidin-3-yl)-1,3,4-oxadiazole], the figures for the IC50 against human TLR9, at human TLR7 and against human TLR8 were 238 nM, 76 nM and 12 nM, respectively.
As to `Cc1cc(-c2[nH]c3ccc(-c4nnc(C(=O)NC5CCN(C(C)C)CC5)o4)cc3c2C(C)C)cc(C)n1` [Example 221, 5-(2-(2,6-dimethylpyridin-4-yl)-3-isopropyl-1H-indol-5-yl)-N-(1-isopropylpiperidin-4-yl)-1,3,4-oxadiazole-2-carboxamide], the IC50 on human TLR9 worked out at 515 nM; against human TLR7, 15 nM; against human TLR8 it was 2.5 nM.
For the compound `Cc1cc(-c2[nH]c3ccc(-c4nnc(C5CN6CCC5CC6)o4)cc3c2C(C)C)ccn1` (stereo not drawn) [Example 222, 2-(3-isopropyl-2-(2-methylpyridin-4-yl)-1H-indol-5-yl)-5-(quinuclidin-3-yl)-1,3,4-oxadiazole], the IC50 is 1240 nM at human TLR9, 34 nM on human TLR7 and 3.2 nM at human TLR8.
With `Cc1cc(-c2[nH]c3ccc(-c4nnc(C(=O)NCCN(C)C)o4)cc3c2C(C)C)cc(C)n1` [Example 223, N-(2-(dimethylamino)ethyl)-5-(2-(2,6-dimethylpyridin-4-yl)-3-isopropyl-1H-indol-5-yl)-1,3,4-oxadiazole-2-carboxamide], the IC50 was 138 nM against human TLR9, 6.6 nM on human TLR7 and 1 nM at human TLR8.
The corresponding values for `Cc1cc(-c2[nH]c3ccc(-c4nnc(C(=O)NCCCN(C)C)o4)cc3c2C(C)C)cc(C)n1` [Example 224, N-(3-(dimethylamino)propyl)-5-(2-(2,6-dimethylpyridin-4-yl)-3-isopropyl-1H-indol-5-yl)-1,3,4-oxadiazole-2-carboxamide] are 229 nM, 11 nM and 2.5 nM.
`Cc1cc(-c2[nH]c3ccc(-c4cc5c(s4)CNCC5)cc3c2C(C)C)ccn1` [Example 225, 2-(3-isopropyl-2-(2-methylpyridin-4-yl)-1H-indol-5-yl)-4,5,6,7-tetrahydrothieno[2,3-c]pyridine]: the IC50 against human TLR9 is 623 nM; against human TLR7, 16 nM; on human TLR8, 1 nM.

These data come from patent US11420958B2, “Aryl and heteroaryl substituted indole compounds” (BRISTOL-MYERS SQUIBB COMPANY, priority 2017, dated 2022).
